Data reported in patent publication US10017511B2, “Pyrazolopyrimidinones for the treatment of impotence and process for the preparation thereof” (COUNCIL OF SCIENTIFIC & INDUSTRIAL RESEARCH, priority 2014, dated 2018).

What was measured:
[1] = test system: conscious rabbit (length of uncovered penile mucosa); assay: In vivo efficacy, conscious rabbit model of penile erection; conditions: 3 mg/kg intravenous, SNP 0.2 mg/kg 5 min later, measured for an hour, SNP alone values subtracted
Method: . SNP alone was also used as a control and the values obtained were subtracted from both the molecules).
Nitric oxide is the main neurotransmitter which mediates smooth muscle relaxation by activating the guanylate cyclise during penile erection, which in turn increases the cGMP level.
This solution was injected into the ear vein of a group of five healthy male rabbit (3-3.5 kg weight) in a volume of 0.5 ml/kg. The event was followed 5 minutes later by another equal volume saline injection containing Sodium nitroprusside (0.2 mg/kg), which acts as a donor of Nitric oxide (NO). Length of uncovered penile mucosa was measured with a sliding caliper at different time points for an hour after administration of the test compounds. The area under the curve (AUC) was calculated by Graph Pad Software. Controls experiments were performed with the SNP alone injections. […]

human PDE5A = human PDE5A (Homo sapiens, UniProt O76074); assay: PDE5 enzyme inhibitory assay (PDE Glo Phosphodiesterase Assay)
Method: The assays were performed by following the manufacturer recommended protocol.
Data analysis was performed with GraphPad Prism®, version 5.00, for Windows using a sigmoidal dose-response (variable slope) equation. Each point represents an average of two replicates per concentration.

Row | Structure (SMILES) | area under the curve (AUC) of length of uncovered penile mucosa [1] | IC50 (human PDE5A) [nM]
1 | CCCc1nn(C)c2c(=O)[nH]c(-c3cc(S(=O)(=O)N4CCC(=O)CC4)ccc3OCC)nc12 [Compound Aa, 5-(2-ethoxy-5-((4-oxopiperidin-1-yl)sulfonyl)phenyl)-1-methyl-3-propyl-1H-pyrazolo[4,3-d]pyrimidin-7(6H)-one] | 722 | 0.8
2 | CCCc1nn(C)c2c(=O)[nH]c(-c3cc(S(=O)(=O)N4CCC(O)CC4)ccc3OCC)nc12 [Compound Ab, 5-(2-ethoxy-5-((4-hydroxypiperidin-1-yl)sulfonyl)phenyl)-1-methyl-3-propyl-1H-pyrazolo[4,3-d]pyrimidin-7(6H)-one] | – | 4.8
3 | CCCc1nn(C)c2c(=O)[nH]c(-c3cc(S(=O)(=O)N4CCN(C)CC4)ccc3OCC)nc12 [Sildenafil, reference compound] | 330 | –
